In patent publication US7053053B2, “Humanin-like peptide and use thereof” (Takeda Chemical Industries, Ltd., priority 2001, dated 2006):

Legend:
[1] = tested on: rat adrenal medulla-derived pheochromocytoma cell PC12h; assay: Inhibition of glutamic acid-induced cell death of PC12h cells (LDH activity of cell extract); format: cell-based; conditions: for cell survival ratio: 1 mM glutamic acid, 72 hrs, survival in glutamic acid non-added plot = 100%, peptide not-added plot 34.0%
Experimental: Inhibitory Activity of the Humanin-Like Peptide against Glutanic Acid-Induced Cell Death of Rat Adrenal Medulla-Derived Pheochromocytoma Cell PC12h
PC12h cells (supplied by Prof. Hiroshi Hatanaka, Institute for Protein Research, Osaka University; Hatanaka, H., Brain Research 222: 225–233, 1981) were plated at a density of 2×10^4 cells/cm^2 in collagen-coated 96-well plates (Iwaki) containing Dulbecco's modified Eagle's medium (hereinafter referred to as “DMEM”) containing 10% fetal bovine serum and 5% horse serum. After 24 hrs, the medium was exchanged for 100 μl of DMEM containing […] HEPES (pH 7.5). At the same time, various concentrations of the humanin-like peptide prepared in Example 2 (SEQ ID NO: 4) and glutamic acid to give a concentration of 1 mM were added to the medium. After 72 hrs, cells were lysed with 100 μl of phosphate buffered saline containing 0.2% Tween 20. Then, the lactate dehydrogenase (LDH) activity of the cell extract was determined with LDH Cytotoxic Test WAKO (Wako Purechemical Industries).

[2] = tested on: nerve cells into which the causative gene of familial Alzheimer's disease is introduced; conditions: nerve cells with the causative gene of familial Alzheimer's disease introduced; Proc. Natl. Acad. Sci. USA 98: 6336–6341, 2001; cited from earlier work
nerve cells = conditions: induced by the addition of β amyloid; Proc. Natl. Acad. Sci. USA 98: 6336–6341, 2001; cited from earlier work

Row | Substance | glutamic acid-induced cell death ([1]; PC12h cells, conclusion in words) | cell survival ratio ([1]; humanin-like peptide 1 μM) [%] | cell survival ratio ([1]; humanin-like peptide 10 μM) [%] | death of nerve cells [2] | death of nerve cells (nerve cells)
1 | humanin-like peptide: polypeptide comprising the amino acid sequence as shown in SEQ ID NO: 4; 24 residues, 6 different from humanin; synthesised in Example 2 (MARRGFSCLLLSTTATDLPVKRRT; Human) | inhibited | 59.3 | 74.6 | – | –
2 | humanin: peptide consisting of 24 residues (WO 01/21787), encoded by a gene cloned from the occipital lobe by Hashimoto et al. (MAPRGFSCLLLLTSEIDLPVKRRA; Humanin; UniProt Q8IVG9 1-24, looked up) | – | – | – | inhibited | inhibited
